Data from patent publication US4045567A, “2-Alkyl-5-thiazole-carboxylic acid derivatives in hypolipemiant compositions” (Roussel Uclaf, priority 1969, dated 1977).
Read-outs that look alike come from different tables or passages of the source.

Experiments:
[1] = in vivo; details: mouse, mice, observed one week
Method: 1. determination of the acute toxicity:
The acute toxicity has been determined on batches of ten mice weighing from 18 to 22 gm. The products were administered in suspension in gum arabic solution in water, at increasing doses, either by oral route or by intraperitoneal route.
The animals are kept under observation for one week. The average lethal dose (LD50) is determined graphically by the method of Dragstedt and Lang.
The acute toxicity was determined on batches of ten mice weighing from 18 to 22 gm. Ethyl 2-n-propyl-thiazole-4-carboxylate was administered in suspension in gum arabic solution in water, at increasing doses by the intraperitoneal route. The animals were kept under observation for one week. The average lethal dose (LD50) was determined graphically by the method of Dragstedt and Lang.

[2] = system: triglycerides; assay: Hypolipemiant activity (serum triglycerides) in the rat, technique of Jacobs et al; assay type: in vivo, male rats of the Wistar strain; details: 4 hours after ingestion; for Percentage of Reduction by Comparison With Controls (triglycerides): oral (oesophagial probe), 20 mg/kg
Method: 2. Determination of hypolipemiant activity:
The hypolipemiant activity has been determined on the rat according to the technique of Jacobs et al, Proc. Soc. Exp. Biol. Med., [1965], 119 (4) pp. 1117-1120.
Male rats of the Wistar strain weighing from 160 to 180 gm are not fed for 24 hours. The products employed in a 5% suspension in gum arabic solution in water, are administered through an oesophagial probe at doses of 20, 40 and 80 mg/kg. Four hours after ingestion of the product, some blood is withdrawn on which a determination of the triglycerides is carried out.
The principle of the determination is as follows:
The serum lipids are extracted with petroleum ether in the presence of ethanol. The lipidic solution is treated several times with 87% ethanol. A solution is thus obtained, the upper part of which contains the glycerides and the lower part, the phospholipids.
The weight of the glycerides is determined by determination of glycerol by periodic acid oxidation and determination of the formaldehyde with chromotropic acid.
A. determination of hypolipemiant activity:
The hypolipemiant activity was determined on the rat using the technique of Jacobs et al (Proc. Soc. Exp. Biol. Med., [1965], 119 [4], pp. 1117-1120). Male rats of the Wistar strain weighing from 160 to 180 gm were not fed for 24 hours. The product employed in a 5% suspension in gum arabic solution in water, was administered orally through an oesophagial probe at doses of 20 and 80 mg/kg. Four hours after ingestion of the product, some blood was withdrawn and a determination of the triglycerides therein was made.
The serum lipids are extracted with petroleum ether in the presence of ethanol and the lipidic solution was treated several times with 87% ethanol to obtain a solution, the upper part of which contained the glycerides and the lower part the phospholipids. The weight of the glycerides by determination of glycerol by periodic acid oxidation and determination of the formaldehyde with chromotropic acid is estimated.

[3] = system: reddening of the ear; assay: Peripheral vasodilatory effect (reddening of the ear) in guinea pigs; assay type: in vivo, guinea pigs with non-pigmented ears; design: key to Intensity (of reddening): intensity, which is recorded subjectively from 0 to +++; intensity, which is recorded subjectively from 0 to +++; intensity, which is recorded subjectively from 0 to +++; intensity, which is recorded subjectively from 0 to +++; details: for Duration (of reddening) / Intensity (of reddening) / Period of Induction: oral
Method: Peripheral vasodilatory effect: The peripheral vasodilatory effect has been investigated on the guinea pigs with non-pigmented ears by the appearance of the reddening of the ear. The animals, after being starved, are administered the products by oral route, at different dosages. The time of appearance of a reddening of the ears, the duration of this reddening and its intensity, which is recorded subjectively from 0 to +++ is determined. B. peripheral vasodilatory effect: The peripheral vasodilatory effect was investigated on guinea pigs with non-pigmented ears by the appearance of the reddening of the ear. The animals were starved and the product was administered intraperitoneally at a dose of 100 mg/kg. The time of appearance of a reddening of the ears, the duration of this reddening and its intensity being recorded subjectively from 0 to +++ is determined.

[4] = Solubility (qualitative); assay type: physicochemical; details: for solubility in other solvents: organic solvents, sodium hydroxide
[5] = Hypothermic activity in guinea pigs; assay type: in vivo; details: intraperitoneal, 100 mg/kg, 1, 2 and 3 hours after administration
Method: The hypothermic activity was determined on guinea pigs by administering the test compound, ethyl 2-n-propyl-thiazole-4-carboxylate, intraperitoneally at a dose of 100 mg/kg. The body temperature of the guinea pigs was determined 1/2 hour before the administration of the test compound and then 1, 2 and 3 hours after the said administration.

[6] = ip, intraperitoneal, read-out: average lethal dose (LD50), Intraperitoneal Route
[7] = oral, read-out: average lethal dose (LD50), Oral Route

Compound: CCc1ncc(C(=O)O)s1 [2-ethyl-5-thiazolecarboxylic acid, 2-Ethyl-5-thiazolecarboxylic acid]
- LD50 at 168 h [1, 6]: 525 mg/kg
- LD50 at 168 h [1, 7]: > 2000 mg/kg
- Percentage of Reduction by Comparison With Controls (triglycerides) [2]: 50%
- Duration (of reddening) ([3]; 50 mg/kg): 50 min
- Intensity (of reddening) ([3]; 50 mg/kg): +++
- Period of Induction ([3]; 50 mg/kg): 6 to 8 min
- Duration (of reddening) ([3]; 100 mg/kg): 60 min
- Intensity (of reddening) ([3]; 100 mg/kg): +++
- Period of Induction ([3]; 100 mg/kg): 6 to 7 min
- solubility in other solvents [4]: soluble in ethanol and sodium hydroxide
- solubility in water [4]: insoluble in water

Compound: CCCc1ncc(C(=O)OCC2COC(C)(C)O2)s1 (stereo not drawn) [2,3-Isopropylidenedioxy-propyl 2-propyl-5-thiazolecarboxylate]
- solubility in other solvents [4]: soluble in ether, benzene and ethanol
- solubility in water [4]: insoluble in water

Compound: CCCCCCCCCCCc1ncc(C(=O)O)s1 [2-n-undecyl-5-thiazolecarboxylic acid]
- solubility in other solvents [4]: soluble in alcohol and acetone
- solubility in water [4]: insoluble in water

Compound: CCCCc1ncc(C(=O)O)s1 [2-n-butyl-5-thiazolecarboxylic acid]
- solubility in other solvents [4]: soluble in alcohol, chloroform and benzene
- solubility in water [4]: insoluble in water

Compound: CCCc1nc(C(=O)OCC)cs1 [ethyl 2-n-propyl-thiazole-4-carboxylate, reference compound]
- hypothermic activity [5]: no hypothermic activity
- LD50 at 168 h [1, 6]: 1000 to 1500 mg/kg
- hypolipemiant activity (action on the triglycerides) ([2]; oral, 20 and 80 mg/kg, comparison test): no action on the triglycerides
- peripheral vasodilatory effect ([3]; intraperitoneal, 100 mg/kg, comparison test): no vasodilatory activity

Compound: CCCCCCc1ncc(C(=O)O)s1 [2-n-hexyl-5-thiazolecarboxylic acid]
- solubility in other solvents [4]: soluble in sodium hydroxide and alcohol
- solubility in water [4]: insoluble in water

Compound: CCCCCc1ncc(C(=O)O)s1 [2-n-pentyl-5-thiazolecarboxylic acid]
- solubility in other solvents [4]: soluble in sodium hydroxide and alcohol, slightly soluble in ether
- solubility in water [4]: insoluble in water

Compound: CCCc1ncc(C(=O)O)s1 [diisopropylammonium 2-propyl-5-thiazolecarboxylate]
- solubility in other solvents [4]: soluble in water and in alcohol
- solubility in water [4]: soluble in water

Compound: CCCc1ncc(C(=O)OCCN(CC)CC)s1 [chlorohydrate of N,N-diethylaminoethyl 2-propyl-5-thiazolecarboxylate]
- solubility in other solvents [4]: soluble in water, ethanol, propylene glycol, acetone, and chloroform, slightly soluble in ethyl acetate and benzene, and insoluble in ether
- solubility in water [4]: soluble in water

Compound: CCCc1ncc(C(=O)O)s1 [2-propyl-5-thiazolecarboxylic acid]
- LD50 at 168 h [1, 6]: 1680 mg/kg
- LD50 at 168 h [1, 7]: > 2000 mg/kg
- Percentage of Reduction by Comparison With Controls (triglycerides) [2]: > 50%
- Duration (of reddening) ([3]; 50 mg/kg): 30 min
- Intensity (of reddening) ([3]; 50 mg/kg): +
- Period of Induction ([3]; 50 mg/kg): 13 min
- Duration (of reddening) ([3]; 100 mg/kg): 32 min
- Intensity (of reddening) ([3]; 100 mg/kg): ++
- Period of Induction ([3]; 100 mg/kg): 10 min
- solubility in other solvents [4]: soluble in sodium hydroxide and alcohol, slightly soluble in ether
- solubility in water [4]: insoluble in water

Compound: CCCc1ncc(C(=O)OCCc2ccccc2)s1 [Phenylethyl 2-propyl-5-thiazolecarboxylate]
- solubility in other solvents [4]: soluble in ether and acetone
- solubility in water [4]: insoluble in water

Compound: Cc1ncc(C(=O)O)s1 [2-methyl-5-thiazolecarboxylic acid]
- Percentage of Reduction by Comparison With Controls (triglycerides) [2]: 40%
- Duration (of reddening) ([3]; 10 mg/kg): 30 min
- Intensity (of reddening) ([3]; 10 mg/kg): +++
- Period of Induction ([3]; 10 mg/kg): 5 min
- Duration (of reddening) ([3]; 20 mg/kg): 32 min
- Intensity (of reddening) ([3]; 20 mg/kg): +++
- Period of Induction ([3]; 20 mg/kg): 3 min
- Duration (of reddening) ([3]; 50 mg/kg): 35 min
- Intensity (of reddening) ([3]; 50 mg/kg): +++
- Period of Induction ([3]; 50 mg/kg): 3 min

Compound: CCCc1ncc(C(=O)OCc2ccccc2)s1 [benzyl 2-propyl-5-thiazolecarboxylate, Benzyl 2-propyl-5-thiazolecarboxylate]
- solubility in other solvents [4]: soluble in ether and ethanol
- solubility in water [4]: insoluble in water
